Values joined by “and” are separate entries in the source; they are usually repeats but may differ in a detail not shown here. Equal entries are not always repeated.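 Briefly, cells in 96-well plates were exposed to five compound concentrations for 48 h, and endpoints were estimated by linear interpolation. Here, GI50 denotes the concentration required for 50% inhibition of growth. TGI is the concentration that stops growth completely.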
Key:
Experiment in all cases: growth of human tumour cells (NCI), 48 h
OVCAR-3 ovarian = tested on: OVCAR-3 ovarian
SN12C renal = tested on: SN12C renal
A498 renal = tested on: A498 renal
MOLT-4 leukemia = tested on: MOLT-4 leukemia
SK-MEL-5 melanoma = tested on: SK-MEL-5 melanoma
CCRF-CEM leukemia = tested on: CCRF-CEM leukemia
HCT-116 colon = tested on: HCT-116 colon
TK-10 renal = tested on: TK-10 renal
PC-3 prostate = tested on: PC-3 prostate
HOP-92 NSCLC = tested on: HOP-92 NSCLC

Compound | GI50 (OVCAR-3 ovarian) | TGI (OVCAR-3 ovarian) | GI50 (SN12C renal) | TGI (SN12C renal) | GI50 (A498 renal) | TGI (A498 renal) | GI50 (MOLT-4 leukemia) | TGI (MOLT-4 leukemia) | GI50 (SK-MEL-5 melanoma) | TGI (SK-MEL-5 melanoma) | GI50 (CCRF-CEM leukemia) | TGI (CCRF-CEM leukemia) | GI50 (HCT-116 colon) | TGI (HCT-116 colon) | GI50 (TK-10 renal) | TGI (TK-10 renal) | GI50 (PC-3 prostate) | TGI (PC-3 prostate) | GI50 (HOP-92 NSCLC) | TGI (HOP-92 NSCLC)
C=C1CCC2C3(C)COC(c4ccc(NC(C)=O)cc4)OC3CCC2(C)C1C/C=C1/C(=O)OCC1O (centres undefined) | > 100 µM | > 100 µM | > 100 µM | > 100 µM | > 100 µM | > 100 µM | 2.32 µM | 24.9 µM | 3.57 µM | > 100 µM | 3.08 µM | > 100 µM | 4.7 µM | > 100 µM | 6.25 µM | > 100 µM | 3.39 µM | > 100 µM | 3.83 µM | > 100 µM
CCOC(=O)c1sc(-c2ccc(OS(=O)(=O)c3cccs3)c(C=O)c2)nc1C |  |  | 1.98 µM | 5.75 µM | 1.58 µM | 3.18 µM | 1.47 µM | 4.02 µM | 1.56 µM | 3 µM | 2.16 µM | 5.38 µM | 0.732 µM | 2.15 µM | 1.27 µM | 4.33 µM | 1.26 µM | 4.81 µM | 1.36 µM | 4.24 µM
O=C(c1ccccc1)C1C(C(=O)c2ccccc2)N1Cc1ccccc1 (centres undefined) |  | 99.2 µM |  | 95.1 µM |  | > 100 µM |  | > 100 µM |  | 36.7 µM |  | > 100 µM |  |  |  | > 100 µM |  | > 100 µM |  | > 100 µM
CCOC1OCCCC1Br (centres undefined) |  | > 100 µM |  | > 100 µM |  | > 100 µM |  | > 100 µM |  | > 100 µM |  | > 100 µM |  | > 100 µM |  | > 100 µM |  | > 100 µM |  | > 100 µM
COc1ccc(/C=C/c2c(C(=O)/C=C/c3ccc(Cl)cc3)c(C)nc3ccccc23)cc1 | 1.62 µM | 3.19 µM | 2.41 µM | 6.97 µM | 1.89 µM | 3.39 µM | 2 µM | > 100 µM | 1.72 µM | 3.11 µM | 2.03 µM | > 100 µM | 0.799 µM | 2.19 µM | 2.87 µM | 4.95 µM | 1.96 µM | 5.89 µM |  | 
COc1ccccc1/C=C\c1cnnc2ccccc12 |  | > 10 µM |  | > 10 µM |  | > 10 µM |  | > 10 µM |  | > 10 µM |  | > 10 µM |  | > 10 µM |  | > 10 µM |  | > 10 µM |  | 7.61 µM
COc1ccc(N2CCN(C(=O)c3ccccc3Nc3ccnc(C(F)(F)F)c3)CC2)cc1 | 28.5 µM | > 100 µM | 64.4 µM | > 100 µM | 12.2 µM | > 100 µM | 29.3 µM | > 100 µM | 10.3 µM | 29.4 µM | 53.9 µM | > 100 µM | 37.7 µM | > 100 µM | 54.7 µM | > 100 µM | 18.7 µM | > 100 µM | 5.33 µM | 68.8 µM
CC1(C)CCC[C@]23C(=O)O[C@](O)(C(=O)C4=C[C@@](C)(/C=C/CCCc5ccc6ccc7cccc8ccc5c6c78)CC[C@@]42O)[C@@H]13 | 0.174 µM | 0.336 µM | 0.164 µM | 0.339 µM | 0.15 µM | 0.288 µM | 0.265 µM | 11.2 µM | 0.185 µM | 0.327 µM | 0.199 µM | 5.87 µM | 0.132 µM | 0.299 µM | 0.196 µM | 0.423 µM | 0.166 µM | 0.378 µM | 0.148 µM | 0.302 µM
COC(=O)c1c[nH]c(=O)[nH]c1=O |  | > 100 µM |  | > 100 µM |  |  |  | > 100 µM |  | > 100 µM |  | > 100 µM |  | > 100 µM |  | > 100 µM |  | > 100 µM |  | > 100 µM
CN(C)c1ccc(/C=C2\C[C@H]3[C@@H]4CC=C5C[C@@H](N6CCCC6)CC[C@]5(C)[C@H]4CC[C@]3(C)[C@H]2O)cc1 | 2.06 µM | 2.7 µM and 4.86 µM | 2.42 µM | 3.3 µM and 5.6 µM | 2.89 µM | 2.1 µM and 8.92 µM | 4.98 µM |  | 3.44 µM | 1.62 µM and 12.7 µM |  |  | 2.1 µM | 1.7 µM and 4.67 µM | 3.76 µM | 3.17 µM and 11.7 µM | 2.82 µM | 50 µM and 12 µM |  | 4.98 µM
C=C(C=O)C1CC(=O)C(C(=O)OC)[C@@H]2O[C@@](C)(CC2=O)C[C@@H]2OC(=O)[C@]3(O[C@@H]23)[C@@H](C(=O)OC)C1 (some centres undefined) | 12.8 µM | 32.8 µM | 18.7 µM | 50.4 µM | 20.7 µM | 47 µM | 4.2 µM | > 100 µM | 17 µM | 38.5 µM | 5.81 µM | > 100 µM | 14.7 µM | 33.6 µM | 24.7 µM | 42 µM | 19.3 µM | 57.6 µM | 16.5 µM | 37.9 µM
NC(=O)CCC(NC(=O)OCc1ccccc1)C(=O)OCC(=O)c1ccccc1 (centres undefined) | > 100 µM | > 100 µM | > 100 µM | > 100 µM | > 100 µM | > 100 µM | > 100 µM | > 100 µM | > 100 µM | > 100 µM | > 100 µM | > 100 µM | > 100 µM | > 100 µM | > 100 µM | > 100 µM | > 100 µM | > 100 µM | > 100 µM | > 100 µM
O=NC1c2cccc3cccc(c23)C1N=O (centres undefined) |  | 9.6 µM |  |  |  | 35.8 µM |  | > 100 µM |  | 30.7 µM |  | 4.25 µM |  | 3.81 µM |  | 37.1 µM |  | 25.4 µM |  | 24.5 µM
CN1/C(=C\C(I)C(I)C2=[N+](C)c3ccccc3C2(C)C)C(C)(C)c2ccccc21 (centres undefined) | 0.304 µM | 13.8 µM | 0.277 µM | 9.86 µM | 0.178 µM | 1.49 µM | 0.243 µM | 2.07 µM | 0.126 µM | 0.528 µM | 0.226 µM | 31 µM | 0.0852 µM | 11.6 µM | 0.521 µM | 27.9 µM | 0.177 µM | 12.3 µM | 0.0931 µM | 1.23 µM
